Measurements: PubChem BioAssay (NCI)
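Each compound was tested at five concentrations against cells in 96-well plates for 48 hours. TGI is the concentration that stops growth completely.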

Experiments:
Assay in all cases: NCI-60 cell line screen, 48 h
SNB-75 CNS = system: SNB-75 CNS
SK-MEL-28 melanoma = system: SK-MEL-28 melanoma
A549 NSCLC = system: A549 NSCLC
HOP-92 NSCLC = system: HOP-92 NSCLC
HOP-62 NSCLC = system: HOP-62 NSCLC
HOP-18 NSCLC = system: HOP-18 NSCLC
LXFL 529 NSCLC = system: LXFL 529 NSCLC
KM20L2 colon = system: KM20L2 colon
RXF-631 renal = system: RXF-631 renal
NCI-H226 lung = system: NCI-H226 lung
U251 CNS = system: U251 CNS
OVCAR-3 ovarian = system: OVCAR-3 ovarian
KM12 colon = system: KM12 colon
SN12C renal = system: SN12C renal
CCRF-CEM leukemia = system: CCRF-CEM leukemia
SF-539 CNS = system: SF-539 CNS
786-0 renal = system: 786-0 renal
OVCAR-5 ovarian = system: OVCAR-5 ovarian
MALME-3M melanoma = system: MALME-3M melanoma
SF-295 CNS = system: SF-295 CNS
HL-60(TB) leukemia = system: HL-60(TB) leukemia
CAKI-1 renal = system: CAKI-1 renal
OVCAR-8 ovarian = system: OVCAR-8 ovarian
ACHN renal = system: ACHN renal
UO-31 renal = system: UO-31 renal
HCT-15 colon = system: HCT-15 colon
SK-MEL-5 melanoma = system: SK-MEL-5 melanoma
SNB-78 CNS = system: SNB-78 CNS
M19-MEL melanoma = system: M19-MEL melanoma
SF-268 CNS = system: SF-268 CNS
A498 renal = system: A498 renal
NCI-H522 lung = system: NCI-H522 lung
IGROV1 ovarian = system: IGROV1 ovarian
SK-OV-3 ovarian = system: SK-OV-3 ovarian
OVCAR-4 ovarian = system: OVCAR-4 ovarian
DLD-1 colon = system: DLD-1 colon
DMS 273 small cell lung = system: DMS 273 small cell lung
XF 498 CNS = system: XF 498 CNS
K-562 leukemia = system: K-562 leukemia
SK-MEL-2 melanoma = system: SK-MEL-2 melanoma
HT29 colon = system: HT29 colon
HCT-116 colon = system: HCT-116 colon
SNB-19 CNS = system: SNB-19 CNS
COLO 205 colon = system: COLO 205 colon
EKVX NSCLC = system: EKVX NSCLC
SW-620 colon = system: SW-620 colon
TK-10 renal = system: TK-10 renal
NCI-H460 lung = system: NCI-H460 lung
NCI-H23 lung = system: NCI-H23 lung
DMS 114 small cell lung = system: DMS 114 small cell lung
M14 melanoma = system: M14 melanoma
UACC-257 melanoma = system: UACC-257 melanoma
UACC-62 melanoma = system: UACC-62 melanoma
RXF 393 renal = system: RXF 393 renal
MOLT-4 leukemia = system: MOLT-4 leukemia
RPMI-8226 leukemia = system: RPMI-8226 leukemia
HCC-2998 colon = system: HCC-2998 colon
LOX IMVI melanoma = system: LOX IMVI melanoma

With `NC(=O)n1ncc(Cl)c(Cl)c1=O` the TGI (SNB-75 CNS) was > 100 µM, the TGI (SK-MEL-28 melanoma) was > 100 µM and the TGI (A549 NSCLC) was > 100 µM. For the same molecule, the TGI (HOP-92 NSCLC) was > 100 µM, the TGI (HOP-62 NSCLC) was > 100 µM and the TGI (HOP-18 NSCLC) was > 100 µM. For the same molecule, the TGI (LXFL 529 NSCLC) was > 100 µM, the TGI (KM20L2 colon) was > 100 µM and the TGI (RXF-631 renal) was > 100 µM. For the same molecule, the TGI (NCI-H226 lung) was > 100 µM, the TGI (U251 CNS) was > 100 µM and the TGI (OVCAR-3 ovarian) was > 100 µM. The TGI (KM12 colon) was > 100 µM, the TGI (SN12C renal) was > 100 µM and the TGI (CCRF-CEM leukemia) was > 100 µM. For the same molecule, the TGI (SF-539 CNS) was > 100 µM, the TGI (786-0 renal) was > 100 µM and the TGI (OVCAR-5 ovarian) was > 100 µM. For the same molecule, the TGI (MALME-3M melanoma) was > 100 µM, the TGI (SF-295 CNS) was > 100 µM and the TGI (HL-60(TB) leukemia) was > 100 µM. The TGI (CAKI-1 renal) was > 100 µM, the TGI (OVCAR-8 ovarian) was > 100 µM and the TGI (ACHN renal) was > 100 µM. The TGI (UO-31 renal) was > 100 µM, the TGI (HCT-15 colon) was > 100 µM and the TGI (SK-MEL-5 melanoma) was > 100 µM. For the same molecule, the TGI (SNB-78 CNS) was > 100 µM, the TGI (M19-MEL melanoma) was > 100 µM and the TGI (SF-268 CNS) was > 100 µM. The TGI (A498 renal) was > 100 µM, the TGI (NCI-H522 lung) was > 100 µM and the TGI (IGROV1 ovarian) was > 100 µM. For the same molecule, the TGI (SK-OV-3 ovarian) was > 100 µM, the TGI (OVCAR-4 ovarian) was > 100 µM and the TGI (DLD-1 colon) was > 100 µM. For the same molecule, the TGI (DMS 273 small cell lung) was > 100 µM, the TGI (XF 498 CNS) was > 100 µM and the TGI (K-562 leukemia) was > 100 µM. The TGI (SK-MEL-2 melanoma) was > 100 µM, the TGI (HT29 colon) was > 100 µM and the TGI (HCT-116 colon) was > 100 µM. For the same molecule, the TGI (SNB-19 CNS) was > 100 µM, the TGI (COLO 205 colon) was > 100 µM and the TGI (EKVX NSCLC) was > 100 µM. For the same molecule, the TGI (SW-620 colon) was > 100 µM, the TGI (TK-10 renal) was > 100 µM and the TGI (NCI-H460 lung) was > 100 µM. For the same molecule, the TGI (NCI-H23 lung) was > 100 µM, the TGI (DMS 114 small cell lung) was > 100 µM and the TGI (M14 melanoma) was > 100 µM. The TGI (UACC-257 melanoma) was > 100 µM and the TGI (UACC-62 melanoma) was > 100 µM.

In the case of `CCOC(=O)N1C(=O)C2C3C=CC(C2C1=O)C1C2C(=O)N(C(=O)OCC)C(=O)C2C31` (stereo unspecified), the TGI (SNB-75 CNS) is reported as > 100 µM, the TGI (SK-MEL-28 melanoma) is reported as > 100 µM and the TGI (A549 NSCLC) is reported as > 100 µM. For the same molecule, the TGI (RXF 393 renal) was > 100 µM, the TGI (HOP-92 NSCLC) was > 100 µM and the TGI (HOP-62 NSCLC) was > 100 µM. The TGI (HOP-18 NSCLC) was > 100 µM, the TGI (LXFL 529 NSCLC) was > 100 µM and the TGI (KM20L2 colon) was > 100 µM. For the same molecule, the TGI (RXF-631 renal) was > 100 µM, the TGI (MOLT-4 leukemia) was > 100 µM and the TGI (NCI-H226 lung) was > 100 µM. The TGI (U251 CNS) was > 100 µM, the TGI (OVCAR-3 ovarian) was > 100 µM and the TGI (KM12 colon) was > 100 µM. For the same molecule, the TGI (SN12C renal) was > 100 µM, the TGI (CCRF-CEM leukemia) was > 100 µM and the TGI (SF-539 CNS) was > 100 µM. The TGI (786-0 renal) was > 100 µM, the TGI (OVCAR-5 ovarian) was > 100 µM and the TGI (MALME-3M melanoma) was > 100 µM. The TGI (SF-295 CNS) was > 100 µM, the TGI (RPMI-8226 leukemia) was > 100 µM and the TGI (HCC-2998 colon) was > 100 µM. For the same molecule, the TGI (HL-60(TB) leukemia) was 41.1 µM, the TGI (CAKI-1 renal) was > 100 µM and the TGI (OVCAR-8 ovarian) was > 100 µM. For the same molecule, the TGI (ACHN renal) was > 100 µM, the TGI (UO-31 renal) was > 100 µM and the TGI (HCT-15 colon) was > 67.2 µM. The TGI (SK-MEL-5 melanoma) was > 100 µM, the TGI (SNB-78 CNS) was > 100 µM and the TGI (M19-MEL melanoma) was > 100 µM. For the same molecule, the TGI (SF-268 CNS) was > 100 µM, the TGI (A498 renal) was > 100 µM and the TGI (NCI-H522 lung) was > 100 µM. For the same molecule, the TGI (IGROV1 ovarian) was > 100 µM, the TGI (SK-OV-3 ovarian) was > 100 µM and the TGI (OVCAR-4 ovarian) was > 100 µM. The TGI (DLD-1 colon) was > 100 µM, the TGI (DMS 273 small cell lung) was > 60.7 µM and the TGI (XF 498 CNS) was > 100 µM. The TGI (K-562 leukemia) was > 100 µM, the TGI (SK-MEL-2 melanoma) was > 100 µM and the TGI (HT29 colon) was > 100 µM. For the same molecule, the TGI (HCT-116 colon) was > 55.2 µM, the TGI (SNB-19 CNS) was > 100 µM and the TGI (COLO 205 colon) was > 100 µM. The TGI (EKVX NSCLC) was > 100 µM, the TGI (SW-620 colon) was > 59.4 µM and the TGI (TK-10 renal) was > 100 µM. The TGI (LOX IMVI melanoma) was > 64 µM, the TGI (NCI-H460 lung) was > 64.4 µM and the TGI (NCI-H23 lung) was > 100 µM. The TGI (DMS 114 small cell lung) was > 70 µM, the TGI (M14 melanoma) was > 100 µM and the TGI (UACC-257 melanoma) was > 100 µM. For the same molecule, the TGI (UACC-62 melanoma) was > 100 µM.
